Consider three compounds from PubChem BioAssay (NCI).

Where “and” joins values, the source holds several entries; their conditions need not be identical. Identical values can stand only once.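 In this assay, cells in 96-well plates receive the compound at five concentrations for 48 hours. Endpoints are linearly interpolated between the surrounding concentrations. GI50 marks 50% less growth. TGI marks complete inhibition of growth.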

Common to all, as to assay: NCI tumour cell line growth inhibition, 48 h
For experiment [1], the system named is MDA-MB-231 breast.
For experiment [2], the system named is 786-0 renal.
Experiment [3] relates to OVCAR-4 ovarian.
For experiment [4], the system named is XF 498 CNS.
The test system of experiment [5] is MCF7 breast.
Experiment [6] has as its system KM20L2 colon.
Experiment [7] has as its system BT-549 breast.
Experiment [8] deals with DLD-1 colon.
In experiment [9] the test system is NCI/ADR-RES ovarian.
In experiment [10] the test system is DMS 114 small cell lung.

For `O=C(O)C1OC(n2cc(F)c(=O)[nH]c2=O)CC1O` (stereo not given), the TGI in experiment [1], in [2], in experiment [3], in experiment [4], in [5] and in experiment [6] was over 100000 nM throughout. Further, the TGI in experiment [7], in experiment [8], in experiment [9] and in [10] was over 100000 nM throughout.

Turning to `COc1cccc2c1C(=O)c1c(O)c3c(c(O)c1C2=O)C[C@@](O)(C(C)=O)C[C@@H]3OC1OC(C)C(O)C(N)C1Br` (stereo not given in full), the TGI in experiment [1] was 1720 nM; in [2], 620 nM and 168 nM; in experiment [3] it was 830 nM and 2710 nM; in experiment [4] it was 414 nM and 423 nM; in experiment [6], 1170 nM; in [7], 913 nM. For the same compound, the TGI is 175 nM and 607 nM in experiment [8]; 428 nM and 212 nM in experiment [10]. Moreover, the GI50 in experiment [2] was 17.8 nM; in [3], 430 nM; in [4], 76.6 nM; in [8] it was 67.9 nM; in experiment [10], 23.3 nM.

With `CC(=O)/C(C)=N/NC(=O)c1ccccc1O`, the TGI in experiment [1] was over 100000 nM; in experiment [2] it was over 100000 nM; in [3], over 100000 nM; in experiment [4], over 10000 nM; in experiment [5], over 100000 nM; in [6], over 10000 nM. The TGI in experiment [7] is over 100000 nM; in [8], over 10000 nM; in experiment [9], over 100000 nM; in experiment [10] it was over 10000 nM. Moreover, the GI50 in experiment [2] and in experiment [3] was over 100000 nM each time.
